In data set [1] the test system is NIH3T3. The data set is described as follows: Antiproliferative activity against TGFbeta-induced mouse NIH3T3 cells assessed as cell growth inhibition incubated for 48 hrs by CCK-8 assay. Format: functional, cell-based. As to conditions: NIH3T3, 48 h. For orientation: Tetrazolium dyes change colour on reduction, which living cells bring about.
Data set [2] relates to NIH3T3. Put plainly: Antiproliferative activity against TGFbeta-induced mouse NIH3T3 cells assessed as cell growth inhibition at 1 mM incubated for 48 hrs by CCK-8 assay. It counts as functional. The note with it: NIH3T3, 48 h.
The nature of data set [3]: Metabolic stability in human liver microsomes assessed as intrinsic clearance measured upto 45 mins in presence of NADPH by LC/MS analysis. Format: ADME, Microsome. The note with it: read-out: CLH. Background: Microsomes from liver hold many membrane-bound enzymes, among them those of drug oxidation.
Data set [4] can be described thus: Metabolic stability in rat liver microsomes assessed as intrinsic clearance measured upto 45 mins in presence of NADPH by LC/MS analysis. Format: ADME, Microsome. As to conditions: read-out: CLH.
The nature of data set [5]: Metabolic stability in human liver microsomes assessed as half life measured upto 45 mins in presence of NADPH by LC/MS analysis. Format: ADME, Microsome.
The nature of data set [6]: Metabolic stability in rat liver microsomes assessed as half life measured upto 45 mins in presence of NADPH by LC/MS analysis. It counts as ADME, Microsome.
Data set [7] is described as follows: Half life in rat at 2 mg/kg,iv by HPLC-UV analysis. Format: ADME, organism-based. The note with it: in vivo.
Data set [8] in a line: Half life in rat at 10 mg/kg,po by HPLC-UV analysis. It counts as ADME, organism-based. As to conditions: in vivo.
A short description of data set [9]: Tmax in rat at 2 mg/kg,iv by HPLC-UV analysis. It counts as ADME, organism-based. As to conditions: in vivo.
Data set [10] is described as follows: Tmax in rat at 10 mg/kg,po by HPLC-UV analysis. It counts as ADME, organism-based. As to conditions: in vivo.
Data set [11] in a line: Cmax in rat at 2 mg/kg,iv by HPLC-UV analysis. As to conditions: in vivo. On the set-up: dose 2 mg/kg, route iv. It counts as ADME, organism-based.
Data set [12] can be described thus: Cmax in rat at 10 mg/kg,po by HPLC-UV analysis. On the set-up: dose 10 mg/kg, route po. Format: ADME, organism-based. The note with it: in vivo.
A short description of data set [13]: AUC (0-t) in rat at 2 mg/kg,iv by HPLC-UV analysis. It counts as ADME, organism-based. On the set-up: dose 2 mg/kg, route iv. As to conditions: in vivo.
A short description of data set [14]: AUC (0-t) in rat at 10 mg/kg,po by HPLC-UV analysis. It counts as ADME, organism-based. On the set-up: dose 10 mg/kg, route po. The note with it: in vivo.
Data set [15] in a line: AUC (0-infinity) in rat at 2 mg/kg,iv by HPLC-UV analysis. Format: ADME, organism-based. On the set-up: time infinity, dose 2 mg/kg, route iv. As to conditions: in vivo.
Data set [16] can be described thus: AUC (0-infinity) in rat at 10 mg/kg,po by HPLC-UV analysis. Format: ADME, organism-based. On the set-up: time infinity, dose 10 mg/kg, route po. As to conditions: in vivo.
Data set [17] in a line: MRT (0 to t) in rat at 2 mg/kg,iv by HPLC-UV analysis. Format: ADME, organism-based. The note with it: in vivo.
Data set [18] is described as follows: MRT (0 to t) in rat at 10 mg/kg,po by HPLC-UV analysis. It counts as ADME, organism-based. The note with it: in vivo.
Data set [19] is described as follows: Oral bioavailability in rat at 10 mg/kg by HPLC-UV analysis. It counts as ADME, organism-based. As to conditions: in vivo.
Data set [20] relates to NIH3T3. Put plainly: Anti-fibrogenic activity against mouse NIH3T3 cells assessed as inhibition of TGFbeta-induced migration rate at 0.1 to 0.4 mM incubated for 48 hrs by wound healing assay. Format: functional, cell-based. The note with it: dose 0.1-0.4 mM, DDE = dose-dependent effect.
Data set [21] has as its system NIH3T3. The data set is described as follows: Induction of apoptosis in TGFbeta-induced mouse NIH3T3 cells assessed as increase in apoptosis rate at 0.05 mM incubated for 48 hrs by Annexin V-FITC/PI staining based flow cytometry. It counts as functional. A general note: Flow cytometry measures light scatter and fluorescence of single cells or particles in a stream.

In data set [22] the test system is NIH3T3. Put plainly: Induction of apoptosis in TGFbeta-induced mouse NIH3T3 cells assessed as increase in apoptosis rate at 0.05 to 0.2 mM incubated for 48 hrs by Annexin V-FITC/PI staining based flow cytometry. It counts as functional, cell-based. The note with it: dose 0.05-0.2 mM, DDE = dose-dependent effect.
In data set [23] the test system is NIH3T3. The data set is described as follows: Anti-fibrogenic activity against mouse NIH3T3 cells assessed as inhibition of TGFbeta-induced COL1 protein expression at 0.01 to 0.2 mM incubated for 48 hrs by western blot assay. Format: functional, cell-based. As to conditions: dose 0.01-0.2 mM, DDE = dose-dependent effect.
Data set [24] relates to NIH3T3. Put plainly: Anti-fibrogenic activity against mouse NIH3T3 cells assessed as inhibition of TGFbeta-induced Fn protein expression at 0.01 to 0.2 mM incubated for 48 hrs by western blot assay. As to conditions: dose 0.01-0.2 mM, DDE = dose-dependent effect. It counts as functional, cell-based.
The subject of data set [25] is NIH3T3. The data set is described as follows: Anti-fibrogenic activity against mouse NIH3T3 cells assessed as inhibition of TGFbeta-induced alpha-SMA protein expression at 0.01 to 0.2 mM incubated for 48 hrs by western blot assay. It counts as functional, cell-based. The note with it: dose 0.01-0.2 mM, DDE = dose-dependent effect.
Data set [26] relates to NIH3T3. The data set is described as follows: Anti-fibrogenic activity against mouse NIH3T3 cells assessed as reduction in TGFbeta-induced Smad2 phosphorylation level at 0.01 to 0.2 mM incubated for 48 hrs by western blot assay. It counts as functional, cell-based. As to conditions: dose 0.01-0.2 mM, DDE = dose-dependent effect.
The test system of data set [27] is NIH3T3. Put plainly: Anti-fibrogenic activity against mouse NIH3T3 cells assessed as reduction in TGFbeta-induced Smad3 phosphorylation level at 0.01 to 0.2 mM incubated for 48 hrs by western blot assay. Format: functional, cell-based. As to conditions: dose 0.01-0.2 mM, DDE = dose-dependent effect.
Data set [28] has as its system NIH3T3. The data set is described as follows: Induction of apoptosis in TGFbeta-induced mouse NIH3T3 cells assessed as increase in apoptosis rate at 10 mM incubated for 48 hrs by Annexin V-FITC/PI staining based flow cytometry. Format: functional.
The subject of data set [29] is NIH3T3. The data set is described as follows: Anti-fibrogenic activity against mouse NIH3T3 cells assessed as inhibition of TGFbeta-induced COL1 protein expression at 0.5 to 10 mM incubated for 48 hrs by western blot assay. The note with it: dose 0.5-10 mM, DDE = dose-dependent effect. Format: functional, cell-based.
Data set [30] relates to NIH3T3. The data set is described as follows: Anti-fibrogenic activity against mouse NIH3T3 cells assessed as inhibition of TGFbeta-induced Fn protein expression at 0.5 to 10 mM incubated for 48 hrs by western blot assay. As to conditions: dose 0.5-10 mM, DDE = dose-dependent effect. Format: functional, cell-based.
For data set [31], the system named is NIH3T3. Put plainly: Anti-fibrogenic activity against mouse NIH3T3 cells assessed as inhibition of TGFbeta-induced alpha-SMA protein expression at 0.5 to 10 mM incubated for 48 hrs by western blot assay. It counts as functional, cell-based. The note with it: dose 0.5-10 mM, DDE = dose-dependent effect.

With `O=C(Cc1ccc(Br)cc1)Nc1ccc(=O)n(-c2ccccc2)c1`, in data set [1], the 50% inhibitory concentration (IC50) came out at 1110 µM. The inhibition at 1000 µM in [2] came to 45.7%.
Turning to `O=C(Cc1ccc(Cl)cc1)Nc1ccc(=O)n(-c2ccccc2)c1`, the IC50 in data set [1] is 1340 µM. Moreover, the inhibition at 1000 µM in [2] was determined as 37.1%.
Regarding `Cc1ccccc1CC(=O)Nc1ccc(=O)n(-c2ccccc2)c1`, the IC50 in [1] came to 730 µM. Also, the inhibition at 1000 µM in data set [2] worked out at 56.1%.
Regarding `O=C(Cc1ccccc1Cl)Nc1ccc(=O)n(-c2ccccc2)c1`, the IC50 in data set [1] was found to be 1980 µM. Further, the inhibition at 1000 µM in [2] stood at 35.2%.
For the molecule `Cc1cccc(CC(=O)Nc2ccc(=O)n(-c3ccccc3)c2)c1`, the inhibition at 1000 µM in [2] stood at 19.8%.
As for `O=C(Cc1ccccc1Br)Nc1ccc(=O)n(-c2ccccc2)c1`, the IC50 in [1] worked out at 1090 µM. Moreover, the inhibition at 1000 µM in data set [2] is 48.9%.
Regarding `O=C(Cc1c(F)cc(F)cc1F)Nc1ccc(=O)n(-c2ccccc2)c1`, in [2], the inhibition at 1000 µM worked out at 28.1%.
Still for that read-out and setting: in the case of `O=C(Cc1cccc(Br)c1)Nc1ccc(=O)n(-c2ccccc2)c1` it was 2.1%; in that of `O=C(Cc1cccc(Cl)c1)Nc1ccc(=O)n(-c2ccccc2)c1`, 27.6%.
Take `Cc1ccc(CC(=O)Nc2ccc(=O)n(-c3ccccc3)c2)c(C)c1`: in data set [1], the IC50 came out at 240 µM. Further, the inhibition at 1000 µM in [2] was 68.9%.
As for `O=C(Cc1cccc(F)c1)Nc1ccc(=O)n(-c2ccccc2)c1`, the inhibition at 1000 µM in data set [2] is 21.9%.
The same measure, in the same setting: in the case of `O=C(CC1CCCCC1)Nc1ccc(=O)n(-c2ccccc2)c1` it was 4.5%.
Consider `O=C(Cc1ccccc1C(F)(F)F)Nc1ccc(=O)n(-c2ccccc2)c1`, for which, in data set [1], the IC50 is 1360 µM. Moreover, in data set [2], the inhibition at 1000 µM amounted to 37.8%.
As for `O=C(Nc1ccc(=O)n(-c2ccccc2)c1)c1ccccc1F`, the inhibition at 1000 µM in [2] was found to be 3.5%.
For `Cc1cc(C)c(CC(=O)Nc2ccc(=O)n(-c3ccccc3)c2)c(C)c1`, the IC50 in [1] turned out to be 140 µM. For the same molecule, the inhibition at 1000 µM in [2] worked out at 74.4%. The CLint scaled in [3] is 3.83 L/h/kg; in data set [4], 6.63 L/h/kg. Further, the half-life in [5] was 27.2 min; in data set [6], 22.5 min; in data set [7], 41.6 min; in data set [8] it was 166 min. The Tmax in data set [9] amounted to 4.98 min; in data set [10], 60.7 min. Further, the Cmax worked out at 0.712 µg/mL in data set [11] and 0.0685 µg/mL in data set [12]. Moreover, the AUC(0-t) in [13] is 0.701 µg·h/mL; in data set [14], 0.332 µg·h/mL. Further, the AUC in [15] was determined as 0.70117 µg·h/mL; in data set [16] it was 0.4065 µg·h/mL. Moreover, the MRT last is 51.4 min in data set [17] and 290 min in data set [18]. The molecule also came in with a F in [19] of 51%. For the same molecule, the Activity entry is “Dde” in [20]; 34.5% in [21]; “Dde” in data set [22]; “Dde” in data set [23]; “Dde” in data set [24]; “Dde” in data set [25]. The Activity entry in data set [26] and in [27] was “Dde” each time.
Regarding `O=C(Cc1ccccc1F)Nc1ccc(=O)n(-c2ccccc2)c1`, the inhibition at 1000 µM in data set [2] was found to be 28.7%.
Turning to `O=C(Cc1ccc(F)cc1)Nc1ccc(=O)n(-c2ccccc2)c1`, in [1], the IC50 is 1560 µM. The inhibition at 1000 µM in data set [2] was 39%.
On to `Cc1ccc(=O)n(-c2ccccc2)c1` [PIRFENIDONE], for which the IC50 in [1] was 13700 µM. The CLint scaled amounted to 73.9 L/h/kg in data set [3] and 104 L/h/kg in data set [4]. The half-life in data set [5] is 5.76 min; in [6], 1.46 min. Besides, the Activity in data set [28] was 31.9%; in data set [29], “Dde”; in data set [30], “Dde”; in data set [31] it was “Dde”.
In the case of `Cc1ccc(CC(=O)Nc2ccc(=O)n(-c3ccccc3)c2)cc1`, the IC50 in data set [1] amounted to 950 µM. Moreover, the inhibition at 1000 µM in data set [2] is 52.2%.

As usually defined, the IC50 is the concentration needed to halve the response being measured. A word on the inhibition: it is the percentage by which the read-out fell short of the control. For orientation: half-life means how long it takes for the measured level to halve. One may read the Tmax as the time at which the peak concentration occurs. One may read the Cmax as the highest concentration seen after dosing. As a reminder, the AUC(0-t) is exposure summed from dosing to a finite time, without extrapolation to infinity. High values mean high exposure, low ones low exposure. Usually AUC stands for concentration integrated over time. High values mean high exposure, low ones low exposure. Broadly, the MRT last is the average time that molecules of a dose stay in the body.

The record behind these values is ChEMBL document CHEMBL5107973, “Synthesis and structure-activity relationships of pirfenidone derivatives as anti-fibrosis agents in vitro” (RSC Med Chem, 2022).
